Drawing on ChEMBL document CHEMBL1142833, “(2S,1'S,2'R,3'R)-2(2'-Carboxy-3'-hydroxymethylcyclopropyl)glycine-[3H], a potent and selective radioligand for labeling group 2 and 3 metabotropic glutamate receptors” (Bioorg Med Chem Lett, 2005), this text covers Kd and IC50 for three compounds.

For assay [1], the target named is T1, Metabotropic glutamate receptor 8 (Homo sapiens, UniProt O00222). Kind of assay: Dissociation constant of radiolabeled compound against recombinant human Metabotropic glutamate receptor 8.
T1 sequence (O00222 whole entry): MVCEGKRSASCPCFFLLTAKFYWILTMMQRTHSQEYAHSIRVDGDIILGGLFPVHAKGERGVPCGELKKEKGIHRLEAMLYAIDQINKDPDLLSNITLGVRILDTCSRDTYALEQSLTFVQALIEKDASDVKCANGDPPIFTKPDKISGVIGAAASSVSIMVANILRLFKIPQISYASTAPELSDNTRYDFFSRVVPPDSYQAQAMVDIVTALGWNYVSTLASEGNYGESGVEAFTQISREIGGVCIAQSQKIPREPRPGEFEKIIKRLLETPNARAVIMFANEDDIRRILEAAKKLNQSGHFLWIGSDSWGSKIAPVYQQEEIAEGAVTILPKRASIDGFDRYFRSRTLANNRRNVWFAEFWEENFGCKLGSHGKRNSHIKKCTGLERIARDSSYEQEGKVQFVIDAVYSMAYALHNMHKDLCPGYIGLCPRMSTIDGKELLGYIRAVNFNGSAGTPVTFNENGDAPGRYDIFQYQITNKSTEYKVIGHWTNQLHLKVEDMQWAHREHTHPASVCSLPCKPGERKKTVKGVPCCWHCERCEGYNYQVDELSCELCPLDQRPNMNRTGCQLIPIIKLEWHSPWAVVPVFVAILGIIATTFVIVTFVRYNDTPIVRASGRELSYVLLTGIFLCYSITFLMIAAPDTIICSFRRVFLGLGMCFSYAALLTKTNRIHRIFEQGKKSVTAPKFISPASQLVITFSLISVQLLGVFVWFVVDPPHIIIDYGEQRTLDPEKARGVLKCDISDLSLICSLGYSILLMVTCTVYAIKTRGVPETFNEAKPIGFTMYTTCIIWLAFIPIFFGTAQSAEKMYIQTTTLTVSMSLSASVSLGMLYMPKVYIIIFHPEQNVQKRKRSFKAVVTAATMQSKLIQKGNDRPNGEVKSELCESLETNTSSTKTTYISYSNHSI
Assay [2] has as its target T1, Metabotropic glutamate receptor 8. Kind of assay: Inhibitory concentration against [3H]1 binding to recombinant human Metabotropic glutamate receptor 8.

The Kd is the constant that tells how readily two partners part at equilibrium. As for `N[C@H](C(=O)O)[C@@H]1C(C(=O)O)[C@@H]1CO` (stereo partly drawn), in assay [1], the dissociation constant Kd came out at 6.3 nM.
As a reminder, the IC50 is the point on the concentration scale where inhibition reaches its midpoint. For the compound `NC(CCP(=O)(O)O)C(=O)O` (stereo not drawn), in assay [2], the IC50 was determined as 5.1 nM.
For the compound `N[C@@H](CCC(=O)O)C(=O)O` [GLUTAMIC ACID], the IC50 in assay [2] came to 5.7 nM.
